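Cultured in 96-well plates, cells were exposed to test compound for 48 hours across five concentrations. Here, GI50 denotes the concentration required for 50% inhibition of growth.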 The source made the active and inactive calls. Cut-off read from the data, not from the text of the source: active = GI50 up to about 1.1 µM and inactive = higher.
What was measured:
Assay in all cases: NCI anticancer screen, dose series, 48 h
[1] = system: CCRF-CEM
[2] = system: COLO 205
[3] = system: DU-145
[4] = system: HCT-116
[5] = system: HL-60
[6] = system: HOP-92
[7] = system: HT-29
[8] = system: Hs-578T
[9] = system: MDA-N
[10] = system: NCI-H226
[11] = system: NCI/ADR-RES
[12] = system: OVCAR-4
[13] = system: OVCAR-8
[14] = system: SF-295
[15] = system: SK-MEL-28
[16] = system: SK-MEL-2
[17] = system: SK-MEL-5
[18] = system: TK-10
[19] = system: UO-31

Row | Structure (SMILES) | GI50 [1] | GI50 [2] | GI50 [3] | GI50 [4] | GI50 [5] | GI50 [6] | GI50 [7] | GI50 [8] | GI50 [9] | GI50 [10] | GI50 [11] | GI50 [12] | GI50 [13] | GI50 [14] | GI50 [15] | GI50 [16] | GI50 [17] | GI50 [18] | GI50 [19]
1 | N#C/C(C(=O)NCc1ccccc1)=C(/N)N1CCCC1 | > 100 µM (inactive) | > 100 µM (inactive) | > 100 µM (inactive) | > 100 µM (inactive) | > 100 µM (inactive) | 97.7 µM (inactive) | > 100 µM (inactive) | > 100 µM (inactive) | > 100 µM (inactive) | > 100 µM (inactive) | > 100 µM (inactive) | > 100 µM (inactive) | > 100 µM (inactive) | > 100 µM (inactive) | > 100 µM (inactive) | > 100 µM (inactive) | > 100 µM (inactive) | > 100 µM (inactive) | 46.3 µM (inactive)
2 | C/C(=N\Nc1nc2ccccc2s1)c1cc(C)ncn1 | 0.0929 µM (active) | 0.0543 µM (active) | 2.19 µM (inactive) | 0.1 µM (active) | 0.0776 µM (active) | 1.54 µM (inactive) | 0.0637 µM (active) | 0.738 µM (active) | 3.98 µM (inactive) | 0.427 µM (active) | 0.371 µM (active) | 1.7 µM (inactive) | 0.29 µM (active) | 2.73 µM (inactive) | 3.09 µM (inactive) | 3.78 µM (inactive) | 0.459 µM (active) | 15.3 µM (inactive) | 0.389 µM (active)
3 | N=C1/C(=C/c2ccco2)C(=O)N=C2SC=NN12 | > 100 µM (inactive) | > 100 µM (inactive) | > 100 µM (inactive) | > 100 µM (inactive) | > 100 µM (inactive) | > 100 µM (inactive) | > 100 µM (inactive) | > 100 µM (inactive) | > 100 µM (inactive) | > 100 µM (inactive) | > 100 µM (inactive) | > 100 µM (inactive) | > 100 µM (inactive) | > 100 µM (inactive) | > 100 µM (inactive) | > 100 µM (inactive) | > 100 µM (inactive) | > 100 µM (inactive) | > 100 µM (inactive)
4 | Cc1c(C)c(S(=O)(=O)N(CCCCCN)OCCCN)c(C)c2c1OC(C)(C)CC2 | 2.6 µM (inactive) | 12.2 µM (inactive) | 25.1 µM (inactive) | 5.98 µM (inactive) | 2.19 µM (inactive) | 18.3 µM (inactive) | 13 µM (inactive) | 6.73 µM (inactive) | 4.73 µM (inactive) | 8.89 µM (inactive) | 20.6 µM (inactive) | 3.96 µM (inactive) | 15.6 µM (inactive) | 17.4 µM (inactive) | 18.9 µM (inactive) | 4.75 µM (inactive) | 14.2 µM (inactive) | 16.2 µM (inactive) | 20.1 µM (inactive)
5 | COC(=O)C(Cc1c[nH]c2ccccc12)NC1=Nc2ccncc2S(=O)(=O)N1c1cccc(OC(C)C)c1 (stereo not given) | 20.6 µM (inactive) | 30.3 µM (inactive) | 32.8 µM (inactive) | 35.4 µM (inactive) | 22.4 µM (inactive) | 3.94 µM (inactive) | 34.2 µM (inactive) | > 100 µM (inactive) | 67.3 µM (inactive) | > 100 µM (inactive) | 20.9 µM (inactive) | 37.2 µM (inactive) | 30.3 µM (inactive) | 42 µM (inactive) | > 100 µM (inactive) | 39.7 µM (inactive) | 25.5 µM (inactive) | > 100 µM (inactive) | 45.3 µM (inactive)
6 | Cc1cc(C)c(OC(=O)Nc2cccc3ccccc23)c(-c2ccccc2)c1 | 22.2 µM (inactive) | 50.1 µM (inactive) | 31.9 µM (inactive) | 34.9 µM (inactive) | 21.1 µM (inactive) | 26.1 µM (inactive) | 43.2 µM (inactive) | 25 µM (inactive) | 29 µM (inactive) | 18.3 µM (inactive) | 26.9 µM (inactive) | 31.3 µM (inactive) | 33.6 µM (inactive) | 48.8 µM (inactive) | 31.3 µM (inactive) | > 10 µM (inactive) | 16.4 µM (inactive) | 33.4 µM (inactive) | 7.52 µM (inactive)
7 | Brc1ccc(/N=C/C=C(\Nc2ccc(Br)cc2)C23CC4CC(CC(C4)C2)C3)cc1 | 1.63 µM (inactive) | 9.62 µM (inactive) | 14.5 µM (inactive) | 9.04 µM (inactive) | 2.95 µM (inactive) | 13.6 µM (inactive) | 18 µM (inactive) | 27.4 µM (inactive) | 12.4 µM (inactive) | 97.3 µM (inactive) | 20 µM (inactive) | 12.7 µM (inactive) | 19.4 µM (inactive) | 10 µM (inactive) | 18.5 µM (inactive) | 8.73 µM (inactive) | 9.33 µM (inactive) | 14.8 µM (inactive) | 17.7 µM (inactive)
8 | COC(=O)[C@@H]1CN(C(C)=O)C(=O)N1C(=O)OCc1ccccc1 | > 100 µM (inactive) | > 100 µM (inactive) | > 100 µM (inactive) | > 100 µM (inactive) | > 100 µM (inactive) | > 100 µM (inactive) | > 100 µM (inactive) | > 100 µM (inactive) | > 100 µM (inactive) | > 100 µM (inactive) | > 100 µM (inactive) | > 100 µM (inactive) | > 100 µM (inactive) | > 100 µM (inactive) | > 100 µM (inactive) | > 100 µM (inactive) | > 100 µM (inactive) | > 100 µM (inactive) | > 100 µM (inactive)
9 | Cc1ccnc(NS(=O)(=O)c2ccc(N=[N+]=[N-])cc2)n1 | > 21.4 µM (inactive) | > 100 µM (inactive) | > 100 µM (inactive) | > 100 µM (inactive) | > 46.9 µM (inactive) | > 100 µM (inactive) | > 100 µM (inactive) | > 100 µM (inactive) | > 100 µM (inactive) | > 100 µM (inactive) | > 100 µM (inactive) | > 100 µM (inactive) | > 100 µM (inactive) | > 100 µM (inactive) | > 100 µM (inactive) | > 100 µM (inactive) | > 100 µM (inactive) | > 100 µM (inactive) | > 100 µM (inactive)
10 | NC1(C(=O)OCc2ccccc2)CCCC1 | 11.4 µM (inactive) | 28.1 µM (inactive) | 16.6 µM (inactive) | 18 µM (inactive) | 0.21 µM (active) | 14.4 µM (inactive) | 37.8 µM (inactive) | 23.7 µM (inactive) | 20.1 µM (inactive) | 30.1 µM (inactive) | 28.6 µM (inactive) | 15.1 µM (inactive) | 12.9 µM (inactive) | 15.9 µM (inactive) | 22.6 µM (inactive) | 17.9 µM (inactive) | 16.6 µM (inactive) | 82.4 µM (inactive) | 15.6 µM (inactive)
11 | NCC(=O)C(O)C(O)C(O)CO (stereo not given) | > 100 µM (inactive) | > 100 µM (inactive) | > 100 µM (inactive) | > 100 µM (inactive) | > 100 µM (inactive) | > 100 µM (inactive) | > 100 µM (inactive) | > 100 µM (inactive) | > 100 µM (inactive) | > 100 µM (inactive) | > 100 µM (inactive) | > 100 µM (inactive) | > 100 µM (inactive) | > 100 µM (inactive) | > 100 µM (inactive) | > 100 µM (inactive) | > 100 µM (inactive) | > 100 µM (inactive) | > 100 µM (inactive)
12 | CSc1nc2ccccc2c(=O)n1-c1cccc(C)c1 | 32.6 µM (inactive) | 48.9 µM (inactive) | > 100 µM (inactive) | 47.8 µM (inactive) | 2.58 µM (inactive) | 26.5 µM (inactive) | 38.6 µM (inactive) | 47.4 µM (inactive) | 23.6 µM (inactive) | > 100 µM (inactive) | 48.4 µM (inactive) | 86.7 µM (inactive) | > 100 µM (inactive) | 95.5 µM (inactive) | > 100 µM (inactive) | 70.5 µM (inactive) | 21.9 µM (inactive) | > 100 µM (inactive) | 0.364 µM (active)
13 | CS(=O)(=O)Nc1ccc(N2Cc3c[nH]c4ccc5nccc2c5c34)cc1 | 7.33 µM (inactive) | 11.9 µM (inactive) | 18.3 µM (inactive) | 9.14 µM (inactive) | 29 µM (inactive) | 12.9 µM (inactive) | 25.5 µM (inactive) | 39.1 µM (inactive) | 15.7 µM (inactive) | 15.4 µM (inactive) | > 100 µM (inactive) | 14 µM (inactive) | 13.7 µM (inactive) | 27.7 µM (inactive) | 18.9 µM (inactive) | 16.4 µM (inactive) | 14.7 µM (inactive) | 23 µM (inactive) | > 100 µM (inactive)
14 | CC1CC(C)CC(NC2=NCCO2)C1 (stereo not given) | > 100 µM (inactive) | > 100 µM (inactive) | > 100 µM (inactive) | > 100 µM (inactive) | > 100 µM (inactive) | > 100 µM (inactive) | > 100 µM (inactive) | > 100 µM (inactive) | > 100 µM (inactive) | > 100 µM (inactive) | > 100 µM (inactive) | > 100 µM (inactive) | > 100 µM (inactive) | > 100 µM (inactive) | > 100 µM (inactive) | > 100 µM (inactive) | > 100 µM (inactive) | > 100 µM (inactive) | > 100 µM (inactive)
15 | COc1cc2cc(C(=O)N3CC(CCl)c4ccc([N+](C)(C)Cc5ccc([N+](=O)[O-])cc5)cc43)[nH]c2c(OC)c1OC (stereo not given) | 2.01 µM (inactive) | 3.25 µM (inactive) | 3.05 µM (inactive) | 1.83 µM (inactive) | 2.04 µM (inactive) | 2.52 µM (inactive) | 2.03 µM (inactive) | 9.62 µM (inactive) | 3.53 µM (inactive) | 2.82 µM (inactive) | 1.71 µM (inactive) | 3.09 µM (inactive) | 1.75 µM (inactive) | 2.58 µM (inactive) | 9.29 µM (inactive) | 2.05 µM (inactive) | 1.71 µM (inactive) | 1.86 µM (inactive) | 2.1 µM (inactive)
